# Patent publication US20250002486A1, “CYCLIC SULFONAMIDE RIBONUCLEOTIDE REDUCTASE (RNR) INHIBITORS AND USES THEREOF” (Boundless Bio, Inc., priority 2021, published 2025)
# Tests used:
# RNR (RNR1:RNR2 1:1) = RNR (RNR1:RNR2 1:1) (Homo sapiens (Human), UniProt P23921); assay: RNR enzyme activity, rapid-fire mass spectrometry (RF/MS) assay; assay type: biochemical; conditions: RNR 50 nM, 1:1 RNR1:RNR2; CDP 5 μM, ATP 1 mM; 37° C., 45 min; compounds screened up to 50 μM
# Method: A rapid-fire mass spectrometry (RF/MS) assay was used to assess RNR enzyme activity using a 384 well plate and a robotic platform.
# The plate layout included two validated reference compounds (Triapine (3-AP) and Hydroxyurea (HU)): • A dose response in duplicate; top concentration: 5 μM (3-AP) and 250 μM (HU), semi-log • dilutions. • Spike wells in triplicate randomly spotted at four concentrations: • 250 μM, 100 μM, 30 μM and 2 μM for HU • 5 μM, 2 μM, 0.6 μM and 0.04 μM for 3-AP
# First, the multidrop pipes were saturated for 30 minutes with enzymatic solution. Then 30 μL of Stop solution was distributed in column 24. Next, 15 μL of enzyme was distributed in column 1 to 24. Next, a pre-incubation step of 15 minutes at room temperature occurred, followed by distribution of 15 μL of substrate solution (column 1 to 24). Next, the plate was incubated for 45 minutes at 37° C. 30 μL of Stop solution was distributed to columns 1 to 23.
# The final parameters for the enzyme reactions were: • Incubation: 37° C., 45 min • [CDP]: 5 μM; [ATP]: 1 mM; [NADPH]: No • [RNR]final: 50 nM with 1:1 (RNR1:RNR2) ratio • Final volume: 30 μL • Stop solution: 6% HCOOH containing 2 μM of 15
# [1] = system: pCHK1 (S345) in Colo320 DM cells; assay: Alphalisa assay: pCHK1 (S345) detection in Colo320 DM cells; assay type: cell-based, human; conditions: compound incubation overnight (approximately 16 hours), pCHK1 (S345) AlphaLisa Sure Fire kit
# Method: Colo320 DM cells (ATCC #CCL-220, derived from human colorectal adenocarcinoma, Dukes' type C) were seeded on a 96-well, cell culture treated assay plate at a density of 50,000 cells/well in 200 μL of RPMI-1640 media supplemented with 10% Fetal Bovine Serum and incubated at 37 degrees Celsius overnight. The following day, test compound dilutions were added directly to the plated cells by a Tecan digital dispenser to a final DMSO concentration of <0.5%. and incubated at 37 degrees Celsius overnight (approximately 16 hours). The following day all cull culture media was removed from the cells. 75 μL of 1× AlphaLisa lysis buffer was added to each well and plates were agitated on a shaker for 30 minutes at room temperature. The lysis of cells and detection of pCHK1 (S345) were performed with regents contained within the AlphaLisa Sure Fire assay kit (Perkin Elmer #ALSU-PCHK1-A) according to the manufacturer's instructions. 10 μL of each lysate was then transferred to a white, 384-well assay plate (Perkin Elmer #6008280). 5 μL of Acceptor mix was then added to each well of lysate in the white, 384-well assay plate and incubated in the dark at room temperature for 60 minutes. 5 μL of Donor mix was then added to each well of the white, 384-well assay plate in subdued light and incubated at room temperature for 60 minutes. Plates were read on an Alpha Technology-compatible plate reader using standard AlphaLisa settings.
# Sequence of RNR (RNR1:RNR2 1:1) (P23921 whole entry): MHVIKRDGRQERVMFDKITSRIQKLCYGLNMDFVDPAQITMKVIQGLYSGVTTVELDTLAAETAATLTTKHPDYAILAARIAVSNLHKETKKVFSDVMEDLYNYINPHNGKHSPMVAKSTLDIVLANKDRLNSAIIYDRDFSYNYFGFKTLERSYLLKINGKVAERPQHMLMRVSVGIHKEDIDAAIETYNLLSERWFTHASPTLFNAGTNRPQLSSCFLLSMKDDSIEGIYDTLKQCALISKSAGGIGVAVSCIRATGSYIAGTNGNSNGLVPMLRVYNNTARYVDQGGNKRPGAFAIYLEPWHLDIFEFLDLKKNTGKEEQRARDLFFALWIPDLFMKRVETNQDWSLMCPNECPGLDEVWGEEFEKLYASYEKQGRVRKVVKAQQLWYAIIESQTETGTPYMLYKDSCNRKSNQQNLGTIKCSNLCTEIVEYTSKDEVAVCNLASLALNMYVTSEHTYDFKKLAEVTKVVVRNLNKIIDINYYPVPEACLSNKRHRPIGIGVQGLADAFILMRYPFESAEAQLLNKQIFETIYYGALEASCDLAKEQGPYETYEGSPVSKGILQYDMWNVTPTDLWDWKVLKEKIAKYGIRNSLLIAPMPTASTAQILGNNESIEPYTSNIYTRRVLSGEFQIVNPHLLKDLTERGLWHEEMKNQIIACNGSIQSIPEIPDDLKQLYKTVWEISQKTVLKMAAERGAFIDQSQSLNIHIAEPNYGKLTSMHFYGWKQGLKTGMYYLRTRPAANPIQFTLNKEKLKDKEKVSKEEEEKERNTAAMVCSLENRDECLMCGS
IC50 (RNR (RNR1:RNR2 1:1)),IC50 [1],"IC50 ([1]; Homo sapiens, COLO 320DM)",Compound
10 to 100 µM,> 50 µM,,"COc1cc(Cl)cc2c1S(=O)(=O)N([C@@H](c1n[nH]c(=O)o1)[C@@H](C)c1c(F)ccc(C)c1C)C2=O (stereo in doubt) [Example 3, 5-((1R,2S)-1-(5-chloro-7-methoxy-1,1-dioxido-3-oxobenzo[d]isothiazol-2(3H)-yl)-2-(6-fluoro-2,3-dimethylphenyl)propyl)-1,3,4-oxadiazol-2(3H)-one]"
10 to 100 µM,,> 50 µM,"COc1cc(Cl)cc2c1S(=O)(=O)N([C@@H](c1n[nH]c(=O)o1)[C@H](C)c1c(F)ccc(C)c1C)C2=O (stereo in doubt) [Example 4, 5-((1R,2R)-1-(5-chloro-7-methoxy-1,1-dioxido-3-oxobenzo[d]isothiazol-2(3H)-yl)-2-(6-fluoro-2,3-dimethylphenyl)propyl)-1,3,4-oxadiazol-2(3H)-one]"
10 to 100 µM,,> 50 µM,"COc1cc(Cl)cc2c1S(=O)(=O)N([C@@H](c1n[nH]c(=O)o1)[C@@H](C)c1c(F)ccc(C)c1C)C2=O (stereo in doubt) [Example 15, 5-((1R,2S)-1-(5-chloro-7-methoxy-1,1-dioxido-3-oxobenzo[d]isothiazol-2(3H)-yl)-2-(6-fluoro-2,3-dimethylphenyl)propyl)-1,3,4-oxadiazol-2(3H)-one]"
10 to 100 µM,,> 50 µM,"Cc1ccc(F)c([C@@H](C)[C@@H](c2n[nH]c(=O)o2)N2C(=O)c3cc(Cl)ccc3S2(=O)=O)c1C [Example 1, 5-((1S,2R)-1-(5-chloro-1,1-dioxido-3-oxobenzo[d]isothiazol-2(3H)-yl)-2-(6-fluoro-2,3-dimethylphenyl)propyl)-1,3,4-oxadiazol-2(3H)-one]"
1 to 10 µM,,> 50 µM,"Cc1ccc(F)c([C@H](C)[C@@H](c2n[nH]c(=O)o2)N2C(=O)c3cc(Cl)ccc3S2(=O)=O)c1C [Example 2, 5-((1S,2S)-1-(5-chloro-1,1-dioxido-3-oxobenzo[d]isothiazol-2(3H)-yl)-2-(6-fluoro-2,3-dimethylphenyl)propyl)-1,3,4-oxadiazol-2(3H)-one]"
10 to 100 µM,,> 50 µM,"COc1cc(Cl)cc2c1S(=O)(=O)N([C@H](c1n[nH]c(=O)o1)[C@@H](C)c1c(F)ccc(C)c1C)C2 [Example 5, 5-((1S,2S)-1-(5-chloro-7-methoxy-1,1-dioxidobenzo [d]isothiazol-2(3H)-yl)-2-(6-fluoro-2,3-dimethylphenyl)propyl)-1,3,4-oxadiazol-2(3H)-one]"
1 to 10 µM,,> 50 µM,"COc1cc(Cl)cc2c1S(=O)(=O)N([C@H](c1n[nH]c(=O)o1)[C@H](C)c1c(F)ccc(C)c1C)C2 [Example 6, 5-((1S,2R)-1-(5-chloro-7-methoxy-1,1-dioxidobenzo [d]isothiazol-2(3H)-yl)-2-(6-fluoro-2,3-dimethylphenyl)propyl)-1,3,4-oxadiazol-2(3H)-one]"
≤ 0.1 µM,,≤ 5 µM,"Cc1ccc(F)c([C@@H](C)[C@@H](c2n[nH]c(=O)o2)N2CCc3cc(Cl)ccc3S2(=O)=O)c1C [Example 7, 5-((1S,2R)-1-(6-chloro-1,1-dioxido-3,4-dihydro-2H-benzo[e][1,2]thiazin-2-yl)-2-(6-fluoro-2,3-dimethylphenyl)propyl)-1,3,4-oxadiazol-2(3H)-one]"
10 to 100 µM,,> 50 µM,"Cc1ccc(F)c([C@H](C)[C@H](c2n[nH]c(=O)o2)N2CCc3cc(Cl)ccc3S2(=O)=O)c1C [Example 8, 5-((1R,2S)-1-(6-chloro-1,1-dioxido-3,4-dihydro-2H-benzo[e][1,2]thiazin-2-yl)-2-(6-fluoro-2,3-dimethylphenyl)propyl)-1,3,4-oxadiazol-2(3H)-one]"
≤ 0.1 µM,,≤ 5 µM,"Cc1ccc(F)c([C@@H](C)[C@@H](c2n[nH]c(=O)o2)N2CCCc3cc(Cl)ccc3S2(=O)=O)c1C [Example 9, 5-((1S,2R)-1-(7-chloro-1,1-dioxido-4,5-dihydrobenzo [f][1,2]thiazepin-2(3H)-yl)-2-(6-fluoro-2,3-dimethylphenyl)propyl)-1,3,4-oxadiazol-2(3H)-one]"
10 to 100 µM,,> 50 µM,"Cc1ccc(F)c([C@H](C)[C@@H](c2n[nH]c(=O)o2)N2CCCc3cc(Cl)ccc3S2(=O)=O)c1C [Example 10, 5-((1S,2S)-1-(7-chloro-1,1-dioxido-4,5-dihydrobenzo [f][1,2]thiazepin-2(3H)-yl)-2-(6-fluoro-2,3-dimethylphenyl)propyl)-1,3,4-oxadiazol-2(3H)-one]"
0.1 to 1 µM,,> 50 µM,"Cc1ccc(F)c([C@@H](C)[C@@H](c2n[nH]c(=O)o2)N2CCc3ccc(Cl)cc3S2(=O)=O)c1C [Example 11, 5-((1S,2R)-1-(7-chloro-1,1-dioxido-3,4-dihydro-2H-benzo[e][1,2]thiazin-2-yl)-2-(6-fluoro-2,3-dimethylphenyl)propyl)-1,3,4-oxadiazol-2(3H)-one]"
10 to 100 µM,,> 50 µM,"Cc1ccc(F)c([C@H](C)[C@@H](c2n[nH]c(=O)o2)N2CCc3ccc(Cl)cc3S2(=O)=O)c1C [Example 12, 5-((1S,2s)-1-(7-chloro-1,1-dioxido-3,4-dihydro-2H-benzo[e][1,2]thiazin-2-yl)-2-(6-fluoro-2,3-dimethylphenyl)propyl)-1,3,4-oxadiazol-2(3H)-one]"
≤ 0.1 µM,,5 to 10 µM,"Cc1ccc(F)c([C@@H](C)[C@@H](c2nn[nH]n2)N2CCc3cc(Cl)ccc3S2(=O)=O)c1C [Example 13, 6-chloro-2-((1S,2R)-2-(6-fluoro-2,3-dimethylphenyl)-1-(2H-tetrazol-5-yl)propyl)-3,4-dihydro-2H-benzo[e][1,2] thiazine 1,1-dioxide]"
1 to 10 µM,,> 50 µM,"Cc1ccc(F)c([C@@H](C)[C@@H](c2n[nH]c(=O)o2)N2Cc3cc(Cl)ccc3S2(=O)=O)c1C [Example 14, 5-((1S,2R)-1-(5-chloro-1,1-dioxidobenzo [d]isothiazol-2(3H)-yl)-2-(6-fluoro-2,3-dimethylphenyl)propyl)-1,3,4-oxadiazol-2(3H)-one]"
0.1 to 1 µM,,5 to 10 µM,"Cc1ccc(F)c(C(C)[C@@H](c2n[nH]c(=O)o2)N2CC(=O)c3cc(Cl)ccc3S2(=O)=O)c1C (stereo partly drawn) [Example 16, 5-((1S)-1-(6-chloro-1,1-dioxido-4-oxo-3,4-dihydro-2H-benzo[e] [1,2]thiazin-2-yl)-2-(6-fluoro-2,3-dimethylphenyl)propyl)-1,3,4-oxadiazol-2(3H)-one]"
10 to 100 µM,,> 50 µM,"Cc1ccc(F)c(C(C)[C@@H](c2n[nH]c(=O)o2)N2C(=O)Cc3cc(Cl)ccc3S2(=O)=O)c1C (stereo partly drawn) [Example 17, 5-((1S)-1-(6-chloro-1,1-dioxido-3-oxo-3,4-dihydro-2H-benzo[e] [1,2]thiazin-2-yl)-2-(6-fluoro-2,3-dimethylphenyl)propyl)-1,3,4-oxadiazol-2(3H)-one]"
0.1 to 1 µM,,10 to 50 µM,"Cc1ccc(F)c([C@@H](C)[C@@H](c2n[nH]c(=O)o2)N2CCc3ccccc3S2(=O)=O)c1C [Example 18, 5-((1S,2R)-1-(1,1-dioxido-3,4-dihydro-2H-benzo[e] [1,2]thiazin-2-yl)-2-(6-fluoro-2,3-dimethylphenyl)propyl)-1,3,4-oxadiazol-2(3H)-one]"
0.1 to 1 µM,,10 to 50 µM,"Cc1ccc(F)c([C@@H](C)[C@@H](c2n[nH]c(=O)o2)N2CC(O)c3cc(Cl)ccc3S2(=O)=O)c1C (stereo partly drawn) [Example 19, 5-((1S,2R)-1-(6-chloro-4-hydroxy-1,1-dioxido-3,4-dihydro-2H-benzo[e][1,2]thiazin-2-yl)-2-(6-fluoro-2,3-dimethylphenyl)propyl)-1,3,4-oxadiazol-2(3H)-one]"
≤ 0.1 µM,,≤ 5 µM,"Cc1ccc(F)c(C(C)[C@@H](c2n[nH]c(=O)o2)N2CC(C)c3cc(Cl)ccc3S2(=O)=O)c1C (stereo partly drawn) [Example 20, 5-((1S)-1-(6-chloro-4-methyl-1,1-dioxido-3,4-dihydro-2H-benzo[e][1,2]thiazin-2-yl)-2-(6-fluoro-2,3-dimethylphenyl)propyl)-1,3,4-oxadiazol-2(3H)-one]"
